Experimental data reported in patent US10876096B2, “Cell culture medium for enhanced hepatocyte function” (Corning Incorporated, priority 2012, dated 2020).

Tests used:
[1] = tested on: mRNA for drug metabolism enzymes and hepatic proteins; assay: Relative mRNA levels by real-time PCR in primary human hepatocytes; type: cell-based; conditions: 10 μM
Protocol: The effects of LEF, LFM, and LFM-A13 on gene expression are tested. Briefly, primary human hepatocytes cultured on collagen I coated surface are incubated with Corning hepatocyte medium containing vehicle control, 10 μM LEF, 10 μM LFM, and 10 μM LFM-A13, respectively. At the end of 48-hour incubation, total RNA is isolated and relative mRNA levels are quantified using real-time PCR. The results are shown in FIG. 6, where CYP is cytochrome P450 enzyme, SULT is sulfotransferase, UGT is UDP-glucuronosyltransferase, ABC is ATP-binding cassette transporters, AHR is aryl hydrocarbon receptor, CAR is constitutive androstene receptor, and PXR is pregnenolone x-receptor.
The effect of LFMA-13 on levels of mRNA encoding a wider variety of drug metabolism enzymes and other proteins of primary human hepatocytes is tested. Briefly, primary human hepatocytes cultured on collagen I coated surface are incubated with Corning hepatocyte medium containing vehicle control and 10 μM LFM-A13, respectively. At the end of 48-hour incubation, total RNA is isolated and relative mRNA levels are quantified using real-time PCR. The results are shown in FIG. 7, where ABC is ATP-binding cassette transporters, CYP is cytochrome P450 enzyme, SLC is solute carrier transporter, SULT is sulfotransferase, UGT is UDP-glucuronosyltransferase, GST is glutathione S-transferase, AHR is aryl hydrocarbon receptor, FOXO is forkhead box receptors, HNF is hepatic nuclear factor, NCO is nuclear receptor coactivator, NR is nuclear receptor, PPARGC1A is peroxisome proliferator-activated receptor gamma coactivator 1-alpha, RXR is retinoid X receptor, and VDR is vitamin D receptor.

[2] = tested on: human embryonic stem cells (hESCs) derived hepatocytes; assay: Immunostaining of hepatic markers in hESC derived hepatocytes; type: cell-based; conditions: Corning hepatocyte medium, 10 μM, 7 days, versus absence (FIG. 9)
Protocol: The effects of LFM-A13 on human embryonic stem cells (hESCs) derived hepatocytes are evaluated. Briefly, hESCs are committed to the hepatocyte lineage using methods known to those skilled in the art and then are cultured in Corning hepatocyte medium in the presence or absence of 10 μM LFM-A13. After 7 days, the stem cell derived hepatocytes are immunostained with primary antibodies to detect expression of hepatocyte proteins; (b) to test for the presence of albumin (ALB), a hepatic precursor marker; and (c) to test for the presence of multidrug resistance-associated protein 2 (MRP2), a member of the superfamily of ATP-binding cassette (ABC) transporters and a marker for hepatic function. Nuclei of cells are counterestained with 4′,6-diamidino-2-phenylindole dihydrochloride (DAPI) to visualize all cells (FIG. a). As depicted, hESCs cultured in the absence of LFM-A13 (left column) have low levels of hepatic markers (ALB and MRP2). In contrast, hESCs cultured in the presence of LFM-A13 (right column) have higher levels of hepatic markers (ALB and MRP2).

[3] = tested on: hepatic markers (ALB, AFP, CYP3A4, CYP7A1, PGC1a); assay: Real-time PCR mRNA expression of hepatic markers in differentiated hESCs; type: cell-based, human; conditions: collagen coated plates with or without Matrigel overlay (FIG. 11)
Protocol: The effect of LFM-A13 on rifampicin-induced CYP3A4 activity and on mRNA expression of a variety of hepatic markers is also determined on the differentiated hESCs. […] In FIG. 11, ALB is albumin, AFP is alpha-fetoprotein, CYP3A4 is cytochrome p450 3A4, CYP7A1 is cytochrome p450 7A1, and PGC1a is […] (COL=collagen I coated plate; MOL=Matrigel overlay).

BTK = BTK (Homo sapiens, UniProt Q06187); conditions: reported, U.S. Pat. No. 6,303,652; cited from earlier work
Polo-like kinase (PLK) = conditions: stated as known; cited from earlier work
liver cells = assay: Drug metabolism activity / global hepatic function of liver cells with other BTK inhibitors and PLK siRNA; type: cell-based
Description: […] The broad enhancement of hepatic function seen with LFM-A13 is not observed with these structurally unrelated BTK inhibitors.

Sequence of BTK (Q06187 whole entry, species assumed): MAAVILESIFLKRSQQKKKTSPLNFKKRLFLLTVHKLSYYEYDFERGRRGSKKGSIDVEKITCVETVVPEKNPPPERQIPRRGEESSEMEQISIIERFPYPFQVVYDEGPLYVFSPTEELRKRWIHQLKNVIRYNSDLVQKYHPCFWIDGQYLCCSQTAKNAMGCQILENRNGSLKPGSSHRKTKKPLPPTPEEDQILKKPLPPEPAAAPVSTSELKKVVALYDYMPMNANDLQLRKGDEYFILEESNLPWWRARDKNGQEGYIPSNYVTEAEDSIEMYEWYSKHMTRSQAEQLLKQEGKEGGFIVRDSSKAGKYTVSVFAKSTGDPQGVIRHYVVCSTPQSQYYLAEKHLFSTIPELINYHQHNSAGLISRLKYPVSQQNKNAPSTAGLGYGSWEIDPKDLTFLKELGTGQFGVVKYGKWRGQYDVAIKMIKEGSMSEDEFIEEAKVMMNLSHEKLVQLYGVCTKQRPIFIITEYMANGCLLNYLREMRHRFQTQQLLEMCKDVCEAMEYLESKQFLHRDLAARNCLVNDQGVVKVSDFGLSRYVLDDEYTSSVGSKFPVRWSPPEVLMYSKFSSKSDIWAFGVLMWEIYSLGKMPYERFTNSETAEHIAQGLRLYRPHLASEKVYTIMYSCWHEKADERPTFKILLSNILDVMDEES

Row | SMILES | AHR mRNA level ([1]; 48 h (FIG. 6)) | CYP1A2 mRNA level ([1]; 48 h (FIG. 6)) | CYP2B6 mRNA level ([1]; 48 h (FIG. 6)) | CYP3A4 mRNA level ([1]; 48 h (FIG. 6)) | UGT1A1 mRNA level ([1]; 48 h (FIG. 6)) | mRNA levels of some of the ABC transporters ([1]; 48 h (FIG. 6)) | mRNA levels of a wide variety of drug metabolism enzymes, including many CYPs ([1]; 48 h (FIG. 7)) | level of hepatic marker MRP2, immunostaining [2] | level of hepatic marker albumin (ALB), immunostaining [2] | expression of hepatic markers (mRNA) [3] | BTK inhibition (BTK) | PLK inhibition (Polo-like kinase (PLK)) | broad enhancement of hepatic function / global hepatic enhancement (liver cells)
1 | C/C(O)=C(/C#N)C(=O)Nc1cc(Br)ccc1Br [LFM-A13, α-Cyano-β-Hydroxy-β-Methyl-N-(2,5-Dibrobophenyl)Propenamide] | greatly increased | greatly increased | greatly increased | greatly increased | greatly increased | greatly increased | increased levels | higher levels | higher levels | enhanced expression | potent BTK inhibitor | Polo-like kinase (PLK) inhibitor | 
2 | CC1=C(O)C(=O)[C@@H]2O[C@@H]2C1=O [Terreic acid] |  |  |  |  |  |  |  |  |  |  |  |  | not observed
